According to US11655246B2, “Aminothiazole compounds as inhibitors of CTPS1” (STEP PHARMA S.A.S., priority 2017, dated 2023):
Several values for one entry are separate records, joined by “and”; a condition that tells them apart may be missing. Equal values may be shown once.

Target: T1, human CTPS1 (Homo sapiens, UniProt P17812)
T1 construct: purchased Proteros biostructures GmbH
T1 sequence (P17812 1-591): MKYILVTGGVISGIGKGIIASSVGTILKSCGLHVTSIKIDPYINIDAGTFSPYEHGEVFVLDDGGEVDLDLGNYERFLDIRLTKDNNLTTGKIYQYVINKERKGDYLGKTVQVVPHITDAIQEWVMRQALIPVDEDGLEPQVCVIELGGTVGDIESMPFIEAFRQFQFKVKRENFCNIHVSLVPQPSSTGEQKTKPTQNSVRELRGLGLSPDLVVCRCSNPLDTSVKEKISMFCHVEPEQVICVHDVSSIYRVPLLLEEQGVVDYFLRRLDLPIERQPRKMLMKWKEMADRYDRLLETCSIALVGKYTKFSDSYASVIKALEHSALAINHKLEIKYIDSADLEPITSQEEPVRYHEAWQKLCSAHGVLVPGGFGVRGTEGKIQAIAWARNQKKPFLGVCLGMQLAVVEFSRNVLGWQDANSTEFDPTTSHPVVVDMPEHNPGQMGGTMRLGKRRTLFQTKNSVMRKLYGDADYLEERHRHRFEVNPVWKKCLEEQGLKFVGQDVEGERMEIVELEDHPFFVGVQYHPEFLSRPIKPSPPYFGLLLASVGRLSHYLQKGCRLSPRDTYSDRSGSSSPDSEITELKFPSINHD
Test: Human CTPS1 enzyme inhibition (ADP-Glo Max assay)
Format: biochemical
Details: Table 17, 25° C., read-out: CTPS1 (Human CTPS1 Enzyme Inhibition data grouped by potency range)
Method: The enzyme inhibitory activities of compounds invented against the target of interest were determined using the ADP-Glo™ Max assay (Promega, UK). Assays for human CTPS1 were performed in 1× assay buffer containing 50 mM Tris, 10 mM MgCl2, 0.01% Tween-20, pH to 8.0 accordingly. Finally, immediately before use, L-cysteine was added to the 1× assay buffer to a final concentration of 2 mM. All reagents are from Sigma-Aldrich unless specified otherwise.
3× human CTPS1 protein was prepared in 1× assay buffer to the final working protein concentration required for the reaction. A 2 uL volume per well of 3× human CTPS1 protein was mixed with 2 uL per well of 3× test compound (compound prepared in 1× assay buffer to an appropriate final 3× compound concentration respective to the concentration response curve designed for the compounds under test) for 10 minutes at 25° C. […] ADP-Glo™ Max reagent was added for 60 minutes (6 uL per well) and subsequently ADP-Glo™ Max development reagent was added for 60 minutes (12 uL per well) prior to signal detection in a microplate reader (EnVision® Multilabel Reader, Perkin Elmer). Following each reagent addition over the course of the assay, assay plates were pulse centrifuged for 30 seconds at 500 rpm.
In all cases, the enzyme converts ATP to ADP and the ADP-Glo™ Max reagent subsequently depletes any remaining endogenous ATP in the reaction system. The ADP-Glo™ Max detection reagent converts the ADP that has been enzymatically produced back into ATP and using ATP as a substrate together with luciferin for the enzyme luciferase, light is generated which produces a detectable luminescence. […] The percentage inhibition produced by each concentration of compound was calculated using the equation shown below: […]

IC50 | Structure (SMILES)
0.1 to 1 µM | CCC(C(=O)Nc1ccc(-c2cncc(C#N)n2)cc1)c1csc(NS(=O)(=O)C2CC2)n1 (centres unmarked) [T79]
1 to 10 µM | O=C(Nc1ccc(-c2ccccc2)cc1)C1CCCc2sc(NS(=O)(=O)C3CC3)nc21 (centres unmarked) [T83]
0.1 to 1 µM | O=C(Nc1ccc(-c2cccnc2)cc1)C1CCCc2sc(NS(=O)(=O)C3CC3)nc21 (centres unmarked) [T84]
0.1 to 1 µM | CCC(C(=O)Nc1ccc(-c2ccccc2)cc1)c1csc(NS(=O)(=O)C2CC2)n1 (centres unmarked) [T85]
1 to 10 µM | CC(C)C(C(=O)Nc1ccc(-c2ccccc2)cc1)c1csc(NS(=O)(=O)C2CC2)n1 (centres unmarked) [T86]
0.1 to 1 µM | CC(C)(C(=O)Nc1ccc(-c2cccc(Cl)c2)cc1)c1csc(NS(=O)(=O)C2CC2)n1 [T87]
0.1 to 1 µM | CC(C)(C(=O)Nc1ccc(-c2cccc(C#N)c2)cc1)c1csc(NS(=O)(=O)C2CC2)n1 [T88]
< 0.1 µM | O=C(Nc1ccc(-c2cccnc2)cc1)C(F)(F)c1csc(NS(=O)(=O)C2CC2)n1 [T89]
< 0.1 µM | CCC(C(=O)Nc1ccc(-c2cncc(F)c2)cc1)c1csc(NS(=O)(=O)C2CC2)n1 (centres unmarked) [T90]
< 0.1 µM | CCOc1cncc(-c2ccc(NC(=O)C(C)c3csc(NS(=O)(=O)C4CC4)n3)cc2)c1 (centres unmarked) [T94]
< 0.1 µM | CC(C(=O)Nc1ccc(-c2cncc(Cl)c2)cc1)c1csc(NS(=O)(=O)C2CC2)n1 (centres unmarked) [T95]
< 0.1 µM | CCOc1cncc(-c2ccc(NC(=O)C(CC)c3csc(NS(=O)(=O)C4CC4)n3)cc2)c1 (centres unmarked) [T96]
0.1 to 1 µM | Cc1ncccc1-c1ccc(NC(=O)Cc2csc(NS(=O)(=O)C3CC3)n2)cc1 [T100]
< 0.1 µM | CC(C(=O)Nc1ccc(-c2cccnc2)cc1)c1csc(NS(=O)(=O)C2CC2)n1 (centres unmarked) [T102]
< 0.1 µM | CCC(CC)(C(=O)Nc1ccc(-c2cncc(Cl)c2)cc1)c1csc(NS(=O)(=O)C2CC2)n1 [T120]
0.1 to 1 µM | CC(C)(C(=O)Nc1ccc(-c2cccnc2)c(Cl)c1)c1csc(NS(=O)(=O)C2CC2)n1 [T153]
< 0.1 µM | CCC(CC)(C(=O)Nc1ccc(-c2cncc(Cl)n2)cc1)c1csc(NS(=O)(=O)C2CC2)n1 [T160]
0.1 to 1 µM | O=C(Nc1ccc(-c2cncc(C(F)(F)F)n2)cn1)C1CCc2sc(NS(=O)(=O)C3CC3)nc21 (centres unmarked) [T169]
0.1 to 1 µM | COCCC(C(=O)Nc1ccc(-c2cnccn2)cn1)c1csc(NS(=O)(=O)C2CC2)n1 (centres unmarked) [T170]
< 0.1 µM | COCCC(C(=O)Nc1ccc(-c2cncc(OC)c2)cn1)c1csc(NS(=O)(=O)C2CC2)n1 (centres unmarked) [T171]

IC50 | Structure (SMILES)
< 0.1 µM | CC(C)OC(C(=O)Nc1ccc(-c2cncc(C(F)(F)F)n2)cn1)c1csc(NS(=O)(=O)C2CC2)n1 (centres unmarked) [T172]
< 0.1 µM | CCCOc1cncc(-c2ccc(NC(=O)C(CC)c3csc(NS(=O)(=O)C4CC4)n3)nc2)n1 (centres unmarked) [T173]
< 0.1 µM | CCC(C(=O)Nc1ccc(-c2cncc(OC(C)C)n2)cn1)c1csc(NS(=O)(=O)C2CC2)n1 (centres unmarked) [T174]
< 0.1 µM | CCC(C(=O)Nc1ccc(-c2cncc(C(F)(F)F)n2)cn1)c1csc(NS(=O)(=O)C2CC2)n1 (centres unmarked) [T175]
< 0.1 µM | CCC(C(=O)Nc1ccc(-c2cncc(OC)n2)cn1)c1csc(NS(=O)(=O)C2CC2)n1 (centres unmarked) [T176]
< 0.1 µM | CCOc1cncc(-c2ccc(NC(=O)C(CC)c3csc(NS(=O)(=O)C4CC4)n3)nc2)n1 (centres unmarked) [T177]
1 to 10 µM | CCC(C(=O)Nc1ccc(-c2cncc(C#N)n2)cn1)c1csc(NS(=O)(=O)C2CC2)n1 (centres unmarked) [T178]
< 0.1 µM | CCC(C(=O)Nc1ccc(-c2cncc(F)c2)cn1)c1csc(NS(=O)(=O)C2CC2)n1 (centres unmarked) [T179]
< 0.1 µM | CCC(C(=O)Nc1ccc(-c2cncc(C#N)c2)cn1)c1csc(NS(=O)(=O)C2CC2)n1 (centres unmarked) [T180]
0.1 to 1 µM | CCC(C(=O)Nc1ccc(-c2ccccc2)cn1)c1csc(NS(=O)(=O)C2CC2)n1 (centres unmarked) [T181]
< 0.1 µM | CCC(C(=O)Nc1ccc(-c2cncc(OCC(F)(F)F)n2)cn1)c1csc(NS(=O)(=O)C2CC2)n1 (centres unmarked) [T182]
< 0.1 µM | CCOc1cncc(-c2cnc(NC(=O)C(CC)c3csc(NS(=O)(=O)C4CC4)n3)c(F)c2)n1 (centres unmarked) [T183]
1 to 10 µM | CCC(C(=O)Nc1ncc(-c2cncc(C#N)n2)cc1F)c1csc(NS(=O)(=O)C2CC2)n1 (centres unmarked) [T184]
< 0.1 µM and 0.1 to 1 µM | CCC(C(=O)Nc1ccc(-c2cncc(OCC(F)(F)F)c2)cn1)c1csc(NS(=O)(=O)C2CC2)n1 (centres unmarked) [T185]
< 0.1 µM | CCC(C(=O)Nc1ccc(-c2cncc(OC(F)F)c2)cn1)c1csc(NS(=O)(=O)C2CC2)n1 (centres unmarked) [T186]
< 0.1 µM | CCC(C(=O)Nc1ccc(-c2cncc(Cl)n2)cn1)c1csc(NS(=O)(=O)C2CC2)n1 (centres unmarked) [T187]
< 0.1 µM | CCOc1cncc(-c2ccc(NC(=O)C(CC)c3csc(NS(=O)(=O)C4CC4)n3)cc2)n1 (centres unmarked) [T189]
< 0.1 µM | COCCC(C(=O)Nc1ccc(-c2cncc(OC)n2)cc1)c1csc(NS(=O)(=O)C2CC2)n1 (centres unmarked) [T190]
< 0.1 µM | COCCC(C(=O)Nc1ccc(-c2cncc(F)c2)cc1)c1csc(NS(=O)(=O)C2CC2)n1 (centres unmarked) [T191]
< 0.1 µM | CCOc1cncc(-c2ccc(NC(=O)C(C)c3csc(NS(=O)(=O)C4CC4)n3)cc2)n1 (centres unmarked) [T192]

IC50 | Structure (SMILES)
< 0.1 µM | CCC(C(=O)Nc1ccc(-c2cncc(C(F)(F)F)c2)cc1)c1csc(NS(=O)(=O)C2CC2)n1 (centres unmarked) [T193]
< 0.1 µM | CCC(C(=O)Nc1ccc(-c2cncc(C#N)c2)cc1)c1csc(NS(=O)(=O)C2CC2)n1 (centres unmarked) [T194]
< 0.1 µM | CCC(C(=O)Nc1ccc(-c2cncc(OCC(F)(F)F)n2)cc1)c1csc(NS(=O)(=O)C2CC2)n1 (centres unmarked) [T195]
< 0.1 µM | CCC(C(=O)Nc1ccc(-c2cnccn2)cc1F)c1csc(NS(=O)(=O)C2CC2)n1 (centres unmarked) [T196]
< 0.1 µM | CCC(C(=O)Nc1ccc(-c2cncc(C(F)(F)F)n2)cc1F)c1csc(NS(=O)(=O)C2CC2)n1 (centres unmarked) [T197]
< 0.1 µM | CCOc1cncc(-c2ccc(NC(=O)C(CC)c3csc(NS(=O)(=O)C4CC4)n3)c(F)c2)n1 (centres unmarked) [T198]
< 0.1 µM | CCOc1cncc(-c2ccc(NC(=O)C(CC)c3csc(NS(=O)(=O)C4CC4)n3)c(F)c2)c1 (centres unmarked) [T199]
< 0.1 µM | CCC(C(=O)Nc1ccc(-c2cncc(F)c2)cc1F)c1csc(NS(=O)(=O)C2CC2)n1 (centres unmarked) [T200]
< 0.1 µM | CCC(C(=O)Nc1ccc(-c2cccnc2)cc1F)c1csc(NS(=O)(=O)C2CC2)n1 (centres unmarked) [T201]
< 0.1 µM | CCC(C(=O)Nc1ccc(-c2cncc(C#N)c2)cc1F)c1csc(NS(=O)(=O)C2CC2)n1 (centres unmarked) [T202]
< 0.1 µM | CCC(C(=O)Nc1ccc(-c2cncc(Cl)c2)cc1F)c1csc(NS(=O)(=O)C2CC2)n1 (centres unmarked) [T203]
< 0.1 µM | CCOc1cncc(-c2ccc3c(c2)CCN3C(=O)C(CC)c2csc(NS(=O)(=O)C3CC3)n2)n1 (centres unmarked) [T206]
< 0.1 µM | CCC(C(=O)Nc1ccc(-c2cncc(OCC(F)(F)F)n2)cc1F)c1csc(NS(=O)(=O)C2CC2)n1 (centres unmarked) [T207]
< 0.1 µM | CCC(C(=O)Nc1ccc(-c2cncc(OC)n2)cc1F)c1csc(NS(=O)(=O)C2CC2)n1 (centres unmarked) [T208]
< 0.1 µM | CCC(C(=O)Nc1ccc(-c2cncc(OC(F)F)c2)cc1F)c1csc(NS(=O)(=O)C2CC2)n1 (centres unmarked) [T209]
< 0.1 µM and 0.1 to 1 µM | CCC(C(=O)Nc1ccc(-c2cncc(OCC(F)(F)F)c2)cc1)c1csc(NS(=O)(=O)C2CC2)n1 (centres unmarked) [T211]
< 0.1 µM | CCC(C(=O)Nc1ccc(-c2cncc(OCC(F)(F)F)c2)cc1F)c1csc(NS(=O)(=O)C2CC2)n1 (centres unmarked) [T212]
0.1 to 1 µM | O=C(Nc1ccc(-c2cccnc2)cc1)C1CCc2sc(NS(=O)(=O)C3CC3)nc21 (centres unmarked) [T213]

Structure (SMILES) | IC50
CCC(C(=O)Nc1ccc(-c2cncc(OC(F)F)c2)cc1)c1csc(NS(=O)(=O)C2CC2)n1 (centres unmarked) [T210] | < 0.1 µM
